Source: patent US20240366498A1, “Reducing the Risk of Infection from Bacteria Present in Skin Pores During Surgery” (The Board of Trustees of the Leland Stanford Junior …, priority 2021, published 2024)
Where two headings read alike, the source gives them in different places.

Columns and labels:
Assay type in all cases: cell-based
[1] = system: Cutibacterium acnes strain 15 (KPL2008); assay: Growth of C. acnes strain 15 in RCM with antibacterial agent, optical density
Method: (§1) Seven different strains of Cutibacterium acnes were grown in test tubes in Reinforced Clostridial Medium (RCM). Each strain was divided into different wells of mulita-well plates (96-well and 384-well plates were used). 80 μl was used and a 1:200 dilution from saturated cultures. Either an antibacterial agent or vehicle (as a control) was added to each well. Absorbance was measured and quantified as optical density (OD) as a proxy for cell biomass. The OD was recorded at regular intervals over several hours. […] The OD at 48 hours was estimated by calculating the average OD between 47 and 49 hours, and this value was used for further analyses. OD600 is the OD at 600 nm. The OD is listed in arbitrary units determined by the spectrophotometers. Such OD data was collected for different concentrations of each antibacterial agent. […] The horizontal axis has units of μM (micromoles per liter).

[2] = system: Cutibacterium acnes strain 2 (BWH-002 25541381); assay: Growth of C. acnes strain 2 in RCM with antibacterial agent, optical density
Method: as §1

[3] = system: Cutibacterium acnes strain 3 (BWH-003 25505801); assay: Growth of C. acnes strain 3 in RCM with antibacterial agent, optical density
Method: as §1

[4] = system: Cutibacterium acnes strain 13 (HM-552 (HL110PA1)); assay: Growth of C. acnes strain 13 in RCM with antibacterial agent, optical density
Method: as §1

[5] = system: Cutibacterium acnes strain 16 (KPL1847); assay: Growth of C. acnes strain 16 in RCM with antibacterial agent, optical density
Method: as §1

[6] = system: Cutibacterium acnes strain 10 (HM-523 (HL053PA2)); assay: Growth of C. acnes strain 10 in RCM with antibacterial agent, optical density
Method: as §1

[7] = system: Cutibacterium acnes strain 12 (HM-539 (HL086PA1)); assay: Growth of C. acnes strain 12 in RCM with antibacterial agent, optical density
Method: as §1

Cutibacterium acnes = assay: Effect of antibacterial agents on C. acnes, seven strains taken together; conditions: across the tested strains
Method: Seven different strains of Cutibacterium acnes were grown in test tubes in Reinforced Clostridial Medium (RCM). Each strain was divided into different wells of mulita-well plates (96-well and 384-well plates were used). 80 μl was used and a 1:200 dilution from saturated cultures. Either an antibacterial agent or vehicle (as a control) was added to each well. Absorbance was measured and quantified as optical density (OD) as a proxy for cell biomass. The OD was recorded at regular intervals over several hours. […] The OD at 48 hours was estimated by calculating the average OD between 47 and 49 hours, and this value was used for further analyses. OD600 is the OD at 600 nm. The OD is listed in arbitrary units determined by the spectrophotometers.
Such OD data was collected for different concentrations of each antibacterial agent. […] The horizontal axis has units of μM (micromoles per liter). Next, IC50 values were calculated by assessing when the OD value was about 0.5.

[8] = strain 15, OD at 48 hours, RCM, read-out: IC50
[9] = strain 2, OD at 48 hours, RCM, read-out: IC50
[10] = strain 3, OD at 48 hours, RCM, read-out: IC50
[11] = strain 13, OD at 48 hours, RCM, read-out: IC50
[12] = strain 16, OD at 48 hours, RCM, read-out: IC50
[13] = strain 10, OD at 48 hours, RCM, read-out: IC50
[14] = strain 12, OD at 48 hours, RCM, read-out: IC50

SMILES: O=C(OOC(=O)c1ccccc1)c1ccccc1 [Benzoyl Peroxide]
- IC50 [1, 8]: 640 µM
- IC50 [2, 9]: 2560 µM
- IC50 [3, 10]: > 2560 µM
- IC50 [4, 11]: 640 µM
- IC50 [5, 12]: 640 µM
- IC50 [6, 13]: 1280 µM
- IC50 [7, 14]: 2560 µM

SMILES: CN[C@H](CC(C)C)C(=O)N[C@H]1C(=O)N[C@@H](CC(N)=O)C(=O)N[C@H]2C(=O)N[C@H]3C(=O)N[C@H](C(=O)N[C@H](C(=O)O)c4cc(O)cc(O)c4-c4cc3ccc4O)[C@H](O)c3ccc(c(Cl)c3)Oc3cc2cc(c3O[C@@H]2O[C@H](CO)[C@@H](O)[C@H](O)[C@H]2O[C@H]2C[C@](C)(N)[C@H](O)[C@H](C)O2)Oc2ccc(cc2Cl)[C@H]1O [Vancomycin]
- IC50 ([1]; 48 h): 0.31 µM
- IC50 ([2]; 48 h): 0.16 µM
- IC50 ([3]; 48 h): 0.15 µM
- IC50 ([4]; 48 h): 0.16 µM
- IC50 ([5]; 48 h): 0.31 µM
- IC50 ([6]; 48 h): 0.16 µM
- IC50 ([7]; 48 h): 0.31 µM

SMILES: OO [Hydrogen Peroxide]
- IC50 [1, 8]: 2560 µM
- IC50 [2, 9]: 1280 µM
- IC50 [3, 10]: 2560 µM
- IC50 [4, 11]: 640 µM
- IC50 [5, 12]: 2560 µM
- IC50 [6, 13]: 2560 µM
- IC50 [7, 14]: 1280 µM

SMILES: CO/N=C(\C(=O)N[C@@H]1C(=O)N2C(C(=O)O)=C(CSc3nc(=O)c(=O)[nH]n3C)CS[C@H]12)c1csc(N)n1 [Ceftriaxone]
- IC50 [2, 9]: 0.0097 µM
- IC50 [3, 10]: 0.0098 µM
- IC50 [4, 11]: 0.0098 µM
- IC50 values, in words (Cutibacterium acnes): relatively low IC50 values
- IC50 [6, 13]: 0.0098 µM
- IC50 [7, 14]: 0.0098 µM

SMILES: C[C@@H](O)[C@H]1C(=O)N2C(C(=O)O)=C(S[C@@H]3CN[C@H](C(=O)Nc4cccc(C(=O)O)c4)C3)[C@H](C)[C@H]12 [Ertapenem]
- IC50 [1, 8]: 0.16 µM
- IC50 [2, 9]: 0.039 µM
- IC50 [3, 10]: 0.16 µM
- IC50 [4, 11]: 0.039 µM
- IC50 [5, 12]: 0.31 µM
- IC50 [6, 13]: 0.078 µM
- IC50 [7, 14]: 0.0098 µM

SMILES: CC1(C)S[C@@H]2[C@H](NC(=O)[C@H](N)c3ccc(O)cc3)C(=O)N2[C@H]1C(=O)O [Amoxicillin]
- IC50 [1, 8]: 0.16 µM
- IC50 [2, 9]: 0.078 µM
- IC50 [3, 10]: 0.0098 µM
- IC50 [4, 11]: 0.019 µM
- IC50 [5, 12]: 0.31 µM
- IC50 values, in words (Cutibacterium acnes): relatively low IC50 values
- IC50 [6, 13]: 0.078 µM
- IC50 [7, 14]: 0.039 µM

SMILES: NC[C@H]1O[C@H](O[C@H]2[C@H](O)[C@@H](O[C@H]3O[C@H](CO)[C@@H](O)[C@H](N)[C@H]3O)[C@H](N)C[C@@H]2N)[C@H](O)[C@@H](O)[C@@H]1O [Kanamycin]
- IC50 [1, 8]: 640 µM
- IC50 [2, 9]: 640 µM
- IC50 [3, 10]: 80 µM
- IC50 [4, 11]: 320 µM
- IC50 [5, 12]: 160 µM
- IC50 [6, 13]: 320 µM
- IC50 [7, 14]: 160 µM

SMILES: CO/N=C(\C(=O)N[C@@H]1C(=O)N2C(C(=O)[O-])=C(C[N+]3(C)CCCC3)CS[C@H]12)c1csc(N)n1 [Cefepime]
- IC50 [1, 8]: 2.5 µM
- IC50 [2, 9]: 0.31 µM
- IC50 [3, 10]: 2.5 µM
- IC50 [4, 11]: 0.31 µM
- IC50 [5, 12]: 2.5 µM
- IC50 [6, 13]: 0.31 µM
- IC50 [7, 14]: 0.16 µM

SMILES: Cc1ncc([N+](=O)[O-])n1CCO [Metronidazole]
- IC50 [1, 8]: 5120 µM
- IC50 [2, 9]: > 5120 µM
- IC50 [3, 10]: > 5120 µM
- IC50 [4, 11]: 5120 µM
- IC50 [5, 12]: > 5120 µM
- IC50 [6, 13]: > 5120 µM
- IC50 [7, 14]: 5120 µM
